Legend:
Test in all cases: relative viability (nuclei count vs DMSO), 5 days (fraction); higher = more cells survive
BEN = tested on: BEN
In short: (§1)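 Relative viability was taken as the ratio of nuclei in treated wells to nuclei in vehicle wells. Lung cancer cell lines in 1536-well plates received compounds by pin tool one day after seeding, either one drug alone or a fixed anchor-drug dose plus five library-drug doses (not always all listed) in √10 steps. Nuclei were counted on 4× images after 5 days of treatment, and values are medians of duplicate plates.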

CAL-12T = tested on: CAL-12T
In short: as §1

COR-L 105 = tested on: COR-L 105
In short: as §1

COR-L23 = tested on: COR-L23
In short: as §1

HARA = tested on: HARA
In short: as §1

HCC-15 = tested on: HCC-15
In short: as §1

HCC-366 = tested on: HCC-366
In short: as §1

HCC-44 = tested on: HCC-44
In short: as §1

HCC-827 = tested on: HCC-827
In short: as §1

HOP-62 = tested on: HOP-62
In short: as §1

LC-2-ad = tested on: LC-2-ad
In short: as §1

O=c1[nH]c2ccccc2n1C1CCN(CCCC(c2ccc(F)cc2)c2ccc(F)cc2)CC1 [Pimozide] + Nc1nc2[nH]cc(CCc3ccc(C(=O)N[C@@H](CCC(=O)O)C(=O)O)cc3)c2c(=O)[nH]1 [Pemetrexed] (partner 0.2 µM)
relative viability (BEN; first compound 0.08 µM): 0.856 | relative viability (BEN; first compound 0.253 µM): 0.689 | relative viability (BEN; first compound 0.8 µM): 0.766 | relative viability (BEN; first compound 2.53 µM): 0.708 | relative viability (BEN; first compound 8 µM): 0.837 | relative viability (CAL-12T; first compound 0.08 µM): 1.22 | relative viability (CAL-12T; first compound 0.253 µM): 1.22 | relative viability (CAL-12T; first compound 0.8 µM): 1.14 | relative viability (CAL-12T; first compound 2.53 µM): 1.22 | relative viability (CAL-12T; first compound 8 µM): 1.11 | relative viability (COR-L 105; first compound 0.08 µM): 0.963 | relative viability (COR-L 105; first compound 0.253 µM): 1.11 | relative viability (COR-L 105; first compound 0.8 µM): 1.07 | relative viability (COR-L 105; first compound 2.53 µM): 1.2 | relative viability (COR-L 105; first compound 8 µM): 0.954 | relative viability (COR-L23; first compound 0.08 µM): 0.2 | relative viability (COR-L23; first compound 0.253 µM): 0.192 | relative viability (COR-L23; first compound 0.8 µM): 0.19 | relative viability (COR-L23; first compound 2.53 µM): 0.192 | relative viability (COR-L23; first compound 8 µM): 0.192 | relative viability (HARA; first compound 0.08 µM): 0.245 | relative viability (HARA; first compound 0.253 µM): 0.262 | relative viability (HARA; first compound 0.8 µM): 0.241 | relative viability (HARA; first compound 2.53 µM): 0.282 | relative viability (HARA; first compound 8 µM): 0.198 | relative viability (HCC-15; first compound 0.08 µM): 0.229 | relative viability (HCC-15; first compound 0.253 µM): 0.226 | relative viability (HCC-15; first compound 0.8 µM): 0.221 | relative viability (HCC-15; first compound 2.53 µM): 0.213 | relative viability (HCC-15; first compound 8 µM): 0.205 | relative viability (HCC-366; first compound 0.08 µM): 0.166 | relative viability (HCC-366; first compound 0.253 µM): 0.173 | relative viability (HCC-366; first compound 0.8 µM): 0.12 | relative viability (HCC-366; first compound 2.53 µM): 0.152 | relative viability (HCC-366; first compound 8 µM): 0.189 | relative viability (HCC-44; first compound 0.08 µM): 0.67 | relative viability (HCC-44; first compound 0.253 µM): 0.666 | relative viability (HCC-44; first compound 0.8 µM): 0.577 | relative viability (HCC-44; first compound 2.53 µM): 0.618 | relative viability (HCC-44; first compound 8 µM): 0.577 | relative viability (HCC-827; first compound 0.253 µM): 0.228 | relative viability (HCC-827; first compound 0.8 µM): 0.258 | relative viability (HCC-827; first compound 2.53 µM): 0.289 | relative viability (HCC-827; first compound 8 µM): 0.254 | relative viability (HOP-62; first compound 0.08 µM): 0.275 | relative viability (HOP-62; first compound 0.253 µM): 0.362 | relative viability (HOP-62; first compound 2.53 µM): 0.283 | relative viability (HOP-62; first compound 8 µM): 0.284 | relative viability (LC-2-ad; first compound 0.08 µM): 0.275 | relative viability (LC-2-ad; first compound 0.253 µM): 0.288 | relative viability (LC-2-ad; first compound 0.8 µM): 0.259 | relative viability (LC-2-ad; first compound 2.53 µM): 0.265

Reference: the supplement of paper PMC10307832
